Tests used:
[1] = system: mice with intrauterine LPS; assay: Facial Grimace Scale 24 hours after final LPS stimulation; type: in vivo, mouse (Balb/C); details: LPS in conjunction with amitriptyline or TAK242, 24 hours after final LPS stimulation
Description: Group 1 included twelve mice with 20 μl endotoxin-free saline introduced to the uterus on the first day of estrus and the subsequent day over 3 consecutive estrous cycles. Group 2 included twelve mice with LPS (100 μg/kg) instilled in the uterus on the first day of estrus and saline injected on the subsequent day over 3 consecutive estrous cycles. Group 3 included twelve mice with LPS (100 μg/kg) mixed with amitriptyline (20 μl of a 100 μM solution, equivalent to 28 μg/kg) instilled in the uterus on the first day of estrus, and amitriptyline alone instilled on the subsequent day over 3 consecutive estrous cycles. Group 4 included 14 mice with LPS (100 μg/kg) mixed with TAK-242 (20 μl of a 100 μM solution, equivalent to 36 μg/kg) instilled on the first day of estrus and TAK-242 alone instilled on the subsequent day over 3 consecutive estrous cycles.
24 hours following the final LPS stimulation mice were subjected to assessment for the presence or absence of pain. This was assessed using the following tests:
Facial Grimace Scale: Photos of mice in their home cage will be taken, to score their facial Grimace and this was quantified and compared between groups. For further information see: http://www.nature.com/nmeth/journal/v7/n6/full/nmeth.1455.html.

[2] = molecular target: T1, human MDA-5 (Homo sapiens, UniProt Q9BYX4); assay: Human RLR antagonist screening, IRF3 luciferase reporter in HEK293 cells; type: cell-based; details: antagonist mode, Ami 1 μM
T1 construct: expressed in transfected cells; host or cells: HEK293
T1 sequence (Q9BYX4 1-1025): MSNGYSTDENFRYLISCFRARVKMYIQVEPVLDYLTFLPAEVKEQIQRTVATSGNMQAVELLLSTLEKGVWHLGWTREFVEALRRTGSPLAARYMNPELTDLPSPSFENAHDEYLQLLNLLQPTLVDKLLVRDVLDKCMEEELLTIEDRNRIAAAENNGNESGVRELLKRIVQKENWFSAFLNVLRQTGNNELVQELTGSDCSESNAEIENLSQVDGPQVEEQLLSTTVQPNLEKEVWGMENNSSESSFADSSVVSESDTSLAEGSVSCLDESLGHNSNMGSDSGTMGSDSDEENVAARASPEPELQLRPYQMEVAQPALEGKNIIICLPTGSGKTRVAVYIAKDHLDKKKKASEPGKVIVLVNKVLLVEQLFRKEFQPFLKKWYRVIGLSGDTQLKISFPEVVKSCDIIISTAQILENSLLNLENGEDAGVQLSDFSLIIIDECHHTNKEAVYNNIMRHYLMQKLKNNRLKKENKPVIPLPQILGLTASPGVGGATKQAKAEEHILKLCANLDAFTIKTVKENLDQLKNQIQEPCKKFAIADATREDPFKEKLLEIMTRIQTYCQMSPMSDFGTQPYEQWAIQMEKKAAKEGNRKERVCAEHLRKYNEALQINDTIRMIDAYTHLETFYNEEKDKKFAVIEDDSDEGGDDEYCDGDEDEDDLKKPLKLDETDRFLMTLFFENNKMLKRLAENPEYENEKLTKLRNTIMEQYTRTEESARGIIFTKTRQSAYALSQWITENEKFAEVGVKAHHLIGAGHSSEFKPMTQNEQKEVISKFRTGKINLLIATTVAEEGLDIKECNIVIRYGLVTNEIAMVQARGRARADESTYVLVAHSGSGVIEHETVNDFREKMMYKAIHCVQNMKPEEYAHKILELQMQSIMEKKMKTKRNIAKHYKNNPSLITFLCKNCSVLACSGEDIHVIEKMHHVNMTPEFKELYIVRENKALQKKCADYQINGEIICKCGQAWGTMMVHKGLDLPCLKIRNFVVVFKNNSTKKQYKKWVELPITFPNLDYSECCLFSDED
Description: (§1) RIG-I and MDA-5 stimulation were tested by assessing IRF3 activation in HEK293 cells expressing human RIG-I or MDA-5 genes. The activity of the test articles was tested on human RIG-I and MDA-5 expressing cells as a potential agonist or antagonist. The test articles were evaluated at one concentration and compared to control ligands. This step was performed in triplicate. The results are provided as Relative Luminescence Units (RLUs). RIG-I/MDA-5: Poly(I:C)/LyoVec at 1 μg/mL Antagonist: 500 ng/mL. 5′ppp-dsRNA/LyoVec at 1 μg/mL Antagonist: 500 ng/mL. hIFNα at 1000 IU/mL. Antagonist: 100 IU/mL. In a 96-well plate (200 μL total volume) containing the appropriate cells (25,000-50,000 cells/well), 20 μL of the test article or of the positive control ligand was added to the wells. For the antagonist assay, the test article was incubated with the cells, at 37° C. with 5% CO2, for 30 minutes prior to the addition of the positive control ligand to the wells. After 20 hour incubation, activation of the IRF pathway was monitored using a luciferase detection assay. Luciferase activity was assayed in triplicate from the supernatant of the induced cells, and the relative luminescence units (RLUs) are detected by a Promega GloMax Luminometer. Fold induction (ratio of average induced value to average non-induced value).

[3] = molecular target: T2, human RIG-I (Homo sapiens, UniProt O95786); assay: as above; type: cell-based; details: antagonist mode, Ami 1 μM
T2 construct: expressed in transfected cells; host or cells: HEK293
T2 sequence (O95786 whole entry): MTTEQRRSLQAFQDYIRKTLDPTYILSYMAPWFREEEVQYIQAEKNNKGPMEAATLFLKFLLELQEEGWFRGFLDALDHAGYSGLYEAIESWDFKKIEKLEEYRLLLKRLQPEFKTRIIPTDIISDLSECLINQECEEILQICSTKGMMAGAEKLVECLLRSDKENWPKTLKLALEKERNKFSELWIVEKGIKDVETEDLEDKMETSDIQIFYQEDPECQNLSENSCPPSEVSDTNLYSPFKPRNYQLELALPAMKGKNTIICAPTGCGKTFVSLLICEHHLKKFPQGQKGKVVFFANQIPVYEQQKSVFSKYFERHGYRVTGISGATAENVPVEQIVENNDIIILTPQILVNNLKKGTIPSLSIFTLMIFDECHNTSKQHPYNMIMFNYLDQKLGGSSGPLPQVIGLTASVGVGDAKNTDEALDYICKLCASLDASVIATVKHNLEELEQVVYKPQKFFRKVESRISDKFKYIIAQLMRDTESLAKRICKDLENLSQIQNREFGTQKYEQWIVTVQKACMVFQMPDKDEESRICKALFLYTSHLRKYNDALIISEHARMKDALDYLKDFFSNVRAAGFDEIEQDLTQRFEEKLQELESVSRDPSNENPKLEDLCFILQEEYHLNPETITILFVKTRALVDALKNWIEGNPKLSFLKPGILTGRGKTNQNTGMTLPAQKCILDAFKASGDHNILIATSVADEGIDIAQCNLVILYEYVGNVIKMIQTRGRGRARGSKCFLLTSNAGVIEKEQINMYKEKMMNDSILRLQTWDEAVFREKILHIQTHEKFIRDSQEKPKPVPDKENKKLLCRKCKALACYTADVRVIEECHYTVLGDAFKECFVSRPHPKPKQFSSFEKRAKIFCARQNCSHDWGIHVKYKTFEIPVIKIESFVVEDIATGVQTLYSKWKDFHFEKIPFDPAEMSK
Description: as §1

For CN(C)CCC=C1c2ccccc2CCc2ccccc21 [Amitriptyline], the Grimace scores [1] was “reduced these scores”, the “Fold induction (ratio of average induced value to average non-induced value)” value ([2]; 5′ppp-dsRNA/LyoVec 500 ng/mL, No Sample 1, Control− 1) was 1 and the “Fold induction (ratio of average induced value to average non-induced value)” value ([2]; Poly(I:C)/LyoVec 500 ng/mL, No Sample 9, Control− 1) was 10. For the same compound, the “Fold induction (ratio of average induced value to average non-induced value)” value ([2]; hIFNα 100 IU/mL, No Sample 255, Control− 1, listed as Ami) was 192, the “Fold induction (ratio of average induced value to average non-induced value)” value ([3]; 5′ppp-dsRNA/LyoVec 500 ng/mL, No Sample 6, Control− 1) was 6 and the “Fold induction (ratio of average induced value to average non-induced value)” value ([3]; Poly(I:C)/LyoVec 500 ng/mL, No Sample 16, Control− 1) was 16.

Source: patent US11400059B2, “Treatment of pain and/or pain related symptoms associated with dysmenorrhea” (ALYRA BIOTECH PTY LTD, priority 2017, dated 2022)
